pIC50: −log10 of the molar value. Like-named read-outs stand apart in the source and are kept apart here.
Key:
[1] = target: Beta Secretase enzyme (BACE) (Homo sapiens, UniProt P56817); assay: In vitro enzymatic BACE FRET (fluorescence resonance energy transfer) assay; format: biochemical; conditions: average IC50, enzyme assay; read-out: BACE 1 FRET assay
Summary of the method: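 Acetate buffer (0.05 M, pH 4.2), 10% DMSO final, 100 uM nonionic detergent genapol. Substrate addition (50 nM FRET peptide) initiates; one-hour incubation; Tris raises pH to neutrality before fluorescence measurement.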

[2] = system: Aβ40 in conditioned medium of cells stably expressing Amyloid Precursor Protein (APP); assay: In vitro BACE cell-based assay (Aβ40 in conditioned medium, sandwich ELISA); conditions: read-out: HEK cell assay
Summary of the method: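 Secreted Aβ40 is captured with pAb40 and detected with biotinylated 6E10, read by europium time-resolved fluorescence. IC50 comes from percent inhibition versus concentration.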

[3] = Homo sapiens, HEK293, average IC50
[4] = Homo sapiens, HEK293, average IC50, HEK cells

Sequence of Beta Secretase enzyme (BACE) (P56817 46-501, species assumed): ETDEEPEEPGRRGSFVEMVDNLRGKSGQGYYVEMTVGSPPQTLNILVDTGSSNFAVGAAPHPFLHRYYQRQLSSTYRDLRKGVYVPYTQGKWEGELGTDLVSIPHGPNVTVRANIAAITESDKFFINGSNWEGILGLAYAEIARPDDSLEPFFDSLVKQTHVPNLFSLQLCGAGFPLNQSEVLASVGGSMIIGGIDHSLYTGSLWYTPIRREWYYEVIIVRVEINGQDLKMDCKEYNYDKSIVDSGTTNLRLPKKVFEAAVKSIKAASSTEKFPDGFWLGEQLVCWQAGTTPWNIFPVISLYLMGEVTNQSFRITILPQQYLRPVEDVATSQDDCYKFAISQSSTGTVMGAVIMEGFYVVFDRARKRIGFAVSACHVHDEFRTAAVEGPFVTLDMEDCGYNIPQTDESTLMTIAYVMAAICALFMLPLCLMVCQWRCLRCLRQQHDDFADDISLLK

Row | pIC50 [1] | pIC50 [2, 3] | pIC50 [2, 4] | SMILES | pIC50 [2]
1 | 7.28 | 5.70 | – | NC1=N[C@@]2(CO1)c1cc(Oc3ccc(Cl)cn3)ccc1Oc1c(F)cc(C3=CCOCC3)cc12 [Example 1066, (4S)-7′-((5-chloro-2-pyridinyl)oxy)-2′-(3,6-dihydro-2H-pyran-4-yl)-4′-fluorospiro[1,3-oxazole-4,9′-xanthen]-2-amine] | –
2 | 8.80 | – | 7.85 | CC1(C)CC(c2cc3c(cn2)Oc2ccc(-c4cncnc4)cc2[C@@]32COC(N)=N2)=CCO1 [Example 679, (5S)-3-(2,2-dimethyl-3,6-dihydro-2H-pyran-4-yl)-7-(5-pyrimidinyl)spiro[chromeno[2,3-c]pyridine-5,4′-[1,3]oxazol]-2′-amine] | –
3 | 5.25 | ≤ 5.00 | – | COc1cc2c(c(F)c1F)Oc1ccc(-c3cccnc3F)cc1[C@]21COC(N)=N1 [Example 1004, (4R)-3′,4′-difluoro-7′-(2-fluoro-3-pyridinyl)-2′-methoxyspiro[1,3-oxazole-4,9′-xanthen]-2-amine] | –
4 | 9.40 | 8.70 | – | CC#Cc1cncc(-c2ccc3c(c2)[C@@]2(COC(N)=N2)c2cc(C4=CCCOC4)nc(F)c2O3)c1 [Example 758, (5S)-3-(5,6-dihydro-2H-pyran-3-yl)-1-fluoro-7-(5-(1-propyn-1-yl)-3-pyridinyl)spiro[chromeno[2,3-c]pyridine-5,4′-[1,3]oxazol]-2′-amine] | –
5 | 9.30 | 8.40 | – | CC#Cc1cncc(-c2ccc3c(c2)[C@@]2(COC(N)=N2)c2cc(C4=CCCOC4)nc(OC)c2O3)c1 [Example 836, (5S)-3-(5,6-dihydro-2H-pyran-3-yl)-1-methoxy-7-(5-(1-propyn-1-yl)-3-pyridinyl)spiro[chromeno[2,3-c]pyridine-5,4′-[1,3]oxazol]-2′-amine] | –
6 | 7.29 | 6.48 | – | NC1=N[C@@]2(CO1)c1cc(OCc3ccccc3Br)ccc1Oc1ncc(-c3cccnc3)cc12 [Example 978, (5S)-7-((2-bromobenzyl)oxy)-3-(3-pyridinyl)spiro[chromeno[2,3-b]pyridine-5,4′-[1,3]oxazol]-2′-amine] | –
7 | 8.60 | 7.28 | – | CC1(C#Cc2cncc(-c3ccc4c(c3)[C@@]3(COC(N)=N3)c3cc(C5=CCCOC5)ncc3O4)c2)COC1 [Example 813, (5S)-3-(5,6-dihydro-2H-pyran-3-yl)-7-(5-((3-methyl-3-oxetanyl)ethynyl)-3-pyridinyl)spiro[chromeno[2,3-c]pyridine-5,4′-[1,3]oxazol]-2′-amine] | –
8 | 9.40 | – | 8.22 | CC#Cc1cnc(F)c(-c2ccc3c(c2)[C@@]2(COC(N)=N2)c2cc(-c4ccnc(F)c4)cnc2O3)c1 [Example 956, (5S)-7-(2-fluoro-5-(1-propyn-1-yl)-3-pyridinyl)-3-(2-fluoro-4-pyridinyl)spiro[chromeno[2,3-b]pyridine-5,4′-[1,3]oxazol]-2′-amine] | –
9 | 8.18 | 5.84 | – | NC1=N[C@@]2(CS1)c1cc(-c3cccnc3F)ccc1Oc1c2cc(Cl)nc1F [Example 1024, (5S)-3-chloro-1-fluoro-7-(2-fluoro-3-pyridinyl)spiro[chromeno[2,3-c]pyridine-5,4′-[1,3]thiazol]-2′-amine] | –
10 | 9.15 | 8.40 | – | CC#Cc1cncc(-c2ccc3c(c2)[C@@]2(COC(N)=N2)c2cc(C4CCOCC4)nc(F)c2O3)c1 [Example 753, (5S)-1-fluoro-7-(5-(1-propyn-1-yl)-3-pyridinyl)-3-(tetrahydro-2H-pyran-4-yl)spiro[chromeno[2,3-c]pyridine-5,4′-[1,3]oxazol]-2′-amine] | –

The next lines start with the compound.

Row | SMILES | pIC50 [1] | pIC50 [2, 3] | pIC50 [2, 4] | pIC50 [2]
11 | NC1=N[C@@]2(CO1)c1cc(-c3cccnc3F)ncc1Oc1c(F)cc(C3=CCOCC3)cc12 [Example 306, (5S)-7-(3,6-dihydro-2H-pyran-4-yl)-9-fluoro-3-(2-fluoro-3-pyridinyl)spiro[chromeno[2,3-c]pyridine-5,4′-[1,3]oxazol]-2′-amine] | 8.82 | 7.25 | – | –
12 | CC(C)(C)/C=C/c1cc2c(cn1)Oc1cc(F)c(-c3cncnc3)cc1[C@@]21COC(N)=N1 [Example 304, (5S)-3-((1E)-3,3-dimethyl-1-buten-1-yl)-8-fluoro-7-(5-pyrimidinyl)spiro[chromeno[2,3-c]pyridine-5,4′-[1,3]oxazol]-2′-amine] | 8.68 | 7.62 | – | –
13 | N#Cc1cccc(-c2ccc3c(c2)[C@@]2(COC(N)=N2)c2cc(N4CCOCC4)cc(F)c2O3)c1 [Example 564, 3-((4S)-2-amino-5′-fluoro-7′-(4-morpholinyl)spiro[1,3-oxazole-4,9′-xanthen]-2′-yl)benzonitrile] | 8.80 | – | 8.04 | –
14 | NC1=N[C@@]2(CO1)c1cc(-c3cccnc3F)ccc1Oc1ncc([C@@H]3CCCOC3)cc12 [Example 174, (5S)-7-(2-fluoro-3-pyridinyl)-3-((3S)-tetrahydro-2H-pyran-3-yl)spiro[chromeno[2,3-b]pyridine-5,4′-[1,3]oxazol]-2′-amine] | 7.92 | 7.40 | – | –
15 | CC1(C#Cc2cnc3c(c2)[C@]2(COC(N)=N2)c2cc(-c4cncc(F)c4)ccc2O3)COC1 [Example 458, (5S)-7-(5-fluoro-3-pyridinyl)-3-((3-methyl-3-oxetanyl)ethynyl)spiro[chromeno[2,3-b]pyridine-5,4′-[1,3]oxazol]-2′-amine] | 8.92 | – | 8.29 | –
16 | Cc1cncc(-c2ccc3c(c2)[C@@]2(COC(N)=N2)c2cc(OCC4(C)COC4)c(F)cc2O3)c1 [Example 328, (4S)-3′-fluoro-2′-((3-methyl-3-oxetanyl)methoxy)-7′-(5-methyl-3-pyridinyl)spiro[1,3-oxazole-4,9′-xanthen]-2-amine] | 7.63 | 7.34 | – | –
17 | NC1=N[C@]2(CO1)c1cc(C3=CCCOC3)ccc1Oc1cc(F)c(-c3cncnc3)cc12 [Example 514, (4R)-7′-(5,6-dihydro-2H-pyran-3-yl)-3′-fluoro-2′-(5-pyrimidinyl)spiro[1,3-oxazole-4,9′-xanthen]-2-amine] | 8.59 | – | 7.94 | –
18 | NC1=N[C@@]2(CO1)c1cc(-c3cncc(F)c3)ccc1Oc1c(F)cc(N3C[C@@H]4C[C@H]3CO4)cc12 [Example 276, (4S)-4′-fluoro-7′-(5-fluoro-3-pyridinyl)-2′-((1S,4S)-2-oxa-5-azabicyclo[2.2.1]hept-5-yl)spiro[1,3-oxazole-4,9′-xanthen]-2-amine] | 9.10 | 8.48 | – | –
19 | NC1=N[C@@]2(CO1)c1cc(-c3c(F)ccnc3F)ccc1Oc1cnc([C@H]3CCCOC3)cc12 (mixture of isomers) [Example 909, (5S)-7-(2,4-difluoro-3-pyridinyl)-3-((3R)-tetrahydro-2H-pyran-3-yl)spiro[chromeno[2,3-c]pyridine-5,4′-[1,3]oxazol]-2′-amine, (5S)-7-(2,4-difluoro-3-pyridinyl)-3-((3S)-tetrahydro-2H-pyran-3-yl)spiro[chromeno[2,3-c]pyridine-5,4′-[1,3]oxazol]-2′-amine] | 7.70 | – | – | 6.58
20 | NC1=N[C@]2(CO1)c1cc(Br)ccc1Oc1c(F)cc(Cl)nc12 [Example 489, (10R)-8-bromo-2-chloro-4-fluorospiro[chromeno[3,2-b]pyridine-10,4′-[1,3]oxazol]-2′-amine] | 5.09 | – | 5.00 | –
21 | COc1ccc(F)c(-c2ccc3c(c2)[C@@]2(COC(N)=N2)c2cc(N4CCOC(C)(C)C4)cnc2O3)c1 [Example 481, (5S)-3-(2,2-dimethyl-4-morpholinyl)-7-(2-fluoro-5-methoxyphenyl)spiro[chromeno[2,3-b]pyridine-5,4′-[1,3]oxazol]-2′-amine] | 8.57 | – | 7.72 | –
22 | NC1=N[C@@]2(CO1)c1cc(-c3cccnc3F)ccc1Oc1c2cc([C@H]2CCCCO2)nc1F [Example 660, (5S)-1-fluoro-7-(2-fluoro-3-pyridinyl)-3-((2R)-tetrahydro-2H-pyran-2-yl)spiro[chromeno[2,3-c]pyridine-5,4′-[1,3]oxazol]-2′-amine] | 9.30 | – | 8.10 | –
23 | CC1(COc2cc3c(cc2F)Oc2ccc(-c4cncc(Cl)c4)cc2[C@@]32COC(N)=N2)COC1 [Example 333, (4S)-7′-(5-chloro-3-pyridinyl)-3′-fluoro-2′-((3-methyl-3-oxetanyl)methoxy)spiro[1,3-oxazole-4,9′-xanthen]-2-amine] | 8.62 | 7.66 | – | –
24 | COc1nc(-c2cccnc2)cc2c1Oc1ccc(-c3cccnc3)cc1[C@@]21COC(N)=N1 [Example 490, (5S)-1-methoxy-3,7-di-3-pyridinylspiro[chromeno[2,3-c]pyridine-5,4′-[1,3]oxazol]-2′-amine] | 8.15 | – | 7.65 | –
25 | N#Cc1cncc(-c2ccc3c(c2)[C@@]2(COC(N)=N2)c2cc(C4=CCOCC4)cc(F)c2O3)c1 [Example 557, 5-((4S)-2-amino-7′-(3,6-dihydro-2H-pyran-4-yl)-5′-fluorospiro[1,3-oxazole-4,9′-xanthen]-2′-yl)-3-pyridinecarbonitrile] | 9.15 | – | 8.43 | –
26 | N#Cc1cncc(-c2ccc3c(c2)[C@@]2(COC(N)=N2)c2cc(N4CCOCC4)cc(F)c2O3)c1 [Example 558, 5-((4S)-2-amino-5′-fluoro-7′-(4-morpholinyl)spiro[1,3-oxazole-4,9′-xanthen]-2′-yl)-3-pyridinecarbonitrile] | 8.77 | – | 8.24 | –
27 | NC1=N[C@@]2(CO1)c1cc(I)ccc1Oc1ncc(Br)cc12 [Example 1016, (5S)-3-bromo-7-iodospiro[chromeno[2,3-b]pyridine-5,4′-[1,3]oxazol]-2′-amine] | 9.15 | 7.92 | – | –
28 | COc1cncc(-c2ccc3c(c2)[C@@]2(COC(N)=N2)c2cc(C4=CCOCC4)cnc2O3)c1 [Example 459, (5S)-3-(3,6-dihydro-2H-pyran-4-yl)-7-(5-methoxy-3-pyridinyl)spiro[chromeno[2,3-b]pyridine-5,4′-[1,3]oxazol]-2′-amine] | 8.66 | – | 8.21 | –

Reference: patent publication US8883782B2, “Spiro-tetracyclic ring compounds as beta-secretase modulators and methods of use” (Amgen Inc., priority 2010, dated 2014)
